Measured values: patent publication US20110081315A1, “NOVEL MACROCYCLIC INHIBITORS OF HEPATITIS C VIRUS REPLICATION” (INTERMUNE, INC., priority 2009, published 2011)

Tests used:
NS3/NS4 complexes = NS3/NS4 complexes (Hepatitis C virus genotype 1a, UniProt P27958); test: NS3/NS4 inhibition assay (IC50); format: biochemical; settings: NS3/NS4 activity; 23° C., 25 μM NS4A peptide
Source text: (§1) NS3-NS4 inhibition activity can be determined using known assay methods. For example, NS3/NS4 complexes may be formed and inhibitory concentrations of test compounds determined as described in U.S. Patent Application Publication Number 2007/0054842 paragraph numbers 1497-1509, which is incorporated herein by reference in its entirety. Similarly, hepatitis C replicon EC50 may be determined using known assay methods such as described in U.S. Patent Application Publication Number 2007/0054842 paragraph numbers 1510-1515, which is incorporated herein by reference in its entirety. Assays may be conducted at ambient temperature (23° C.) in assay buffer containing 50 mM Tris-HCl, pH 7.5, 15% glycerol, 0.6 mM Lauryldimethylamine Oxide (LDAO), 25 μM NS4A peptide, and 10 mM Dithiothreitol (DTT).

hepatitis C replicon = hepatitis C replicon EC50 assay; format: cell-based; settings: Hepatitis C virus; hepatitis C replicon; read-out: EC50
Source text: as §1

Sequence of NS3/NS4 complexes (P27958 1027-1657, one chain of several): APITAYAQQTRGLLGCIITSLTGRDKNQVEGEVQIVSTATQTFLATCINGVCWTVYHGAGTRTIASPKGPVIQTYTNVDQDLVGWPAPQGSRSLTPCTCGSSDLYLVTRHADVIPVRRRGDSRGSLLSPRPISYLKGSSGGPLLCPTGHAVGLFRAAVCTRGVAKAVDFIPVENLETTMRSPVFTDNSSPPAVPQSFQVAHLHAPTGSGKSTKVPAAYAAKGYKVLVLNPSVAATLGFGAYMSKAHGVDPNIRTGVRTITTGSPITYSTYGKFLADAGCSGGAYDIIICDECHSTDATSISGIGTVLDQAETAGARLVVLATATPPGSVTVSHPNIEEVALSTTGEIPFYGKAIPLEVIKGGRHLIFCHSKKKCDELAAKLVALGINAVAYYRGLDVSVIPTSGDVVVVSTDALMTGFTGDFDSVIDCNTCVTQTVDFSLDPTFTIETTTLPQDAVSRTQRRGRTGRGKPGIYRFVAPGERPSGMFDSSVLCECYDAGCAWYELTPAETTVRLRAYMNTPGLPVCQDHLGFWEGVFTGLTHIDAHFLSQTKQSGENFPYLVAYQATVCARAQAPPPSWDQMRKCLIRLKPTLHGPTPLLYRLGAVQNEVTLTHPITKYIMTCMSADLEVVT

SMILES | IC50 (NS3/NS4 complexes) [nM] | EC50 (hepatitis C replicon) [nM]
Cc1cc(-c2nc(C(C)C)cs2)c2nc(O[C@@H]3C[C@H]4C(=O)N[C@]5(C(=O)NS(=O)(=O)N(C)C)C[C@H]5/C=C\CCCCC[C@H](NC(=O)OC(C)(C)C)C(=O)N4C3)n(C(C)C)c2c1 [Compound 1436] | < 10 | 10 to 100
CC(C)n1c(O[C@@H]2C[C@H]3C(=O)N[C@]4(C(=O)NS(=O)(=O)C5(C)CC5)C[C@H]4/C=C\CCCCC[C@H](Nc4ccccc4)C(=O)N3C2)nc2c(C(=O)O)cccc21 [Compound 267] | < 10 | > 100
CC(C)n1c(O[C@@H]2C[C@H]3C(=O)N[C@]4(C(=O)NS(=O)(=O)C5(C)CC5)C[C@H]4/C=C\CCCCC[C@H](NC(=O)OC(C)(C)C)C(=O)N3C2)nc2c(-c3nc(Cc4cccc(Cl)c4)cs3)cccc21 [Compound 1724] | < 10 | 10 to 100
CC(C)n1c(O[C@@H]2C[C@H]3C(=O)N[C@]4(C(=O)NS(=O)(=O)C5(C)CC5)C[C@H]4/C=C\CCCCC[C@H](Nc4ccccc4)C(=O)N3C2)nc2c(-c3ccoc3)cccc21 [Compound 252] | < 10 | 10 to 100
CCc1cccc2c1nc(O[C@@H]1C[C@H]3C(=O)N[C@]4(C(=O)NS(=O)(=O)C5(C)CC5)C[C@H]4/C=C\CCCCC[C@H](Nc4ccccc4)C(=O)N3C1)n2C(C)C [Compound 265] | < 10 | 10 to 100
COc1cccc(-c2cccc3c2nc(O[C@@H]2C[C@H]4C(=O)N[C@]5(C(=O)NS(=O)(=O)C6(C)CC6)C[C@H]5/C=C\CCCCC[C@H](Nc5ccccc5)C(=O)N4C2)n3C(C)C)c1 [Compound 244] | < 10 | 10 to 100
CC(C)c1csc(NC(=O)c2cccc3c2nc(O[C@@H]2C[C@H]4C(=O)N[C@]5(C(=O)NS(=O)(=O)N(C)C)C[C@H]5/C=C\CCCCC[C@H](NC(=O)OC(C)(C)C)C(=O)N4C2)n3C(C)C)n1 [Compound 1221] | < 10 | < 10
CC(C)n1c(O[C@@H]2C[C@H]3C(=O)N[C@]4(C(=O)NS(=O)(=O)N(C)C)C[C@H]4/C=C\CCCCC[C@H](NC(=O)OC(C)(C)C)C(=O)N3C2)nc2c(-c3nc(-c4ccncc4)cs3)cccc21 [Compound 1737] | < 10 | < 10
COc1ccc2c(O[C@@H]3C[C@H]4C(=O)N[C@]5(C(=O)NS(=O)(=O)C6(C)CC6)C[C@H]5/C=C\CCCCC[C@H](Nc5cccc(C(=O)N6CCN(C(=O)c7ccco7)CC6)c5)C(=O)N4C3)cc(-c3nc(C(C)C)cs3)nc2c1C [Compound 121] | < 10 | 10 to 100
CC(C)c1csc(-c2cccc3c2nc(O[C@@H]2C[C@H]4C(=O)N[C@]5(C(=O)NS(=O)(=O)C6CC6)C[C@H]5/C=C\CCCCC[C@H](NC(=O)OC(C)(C)C)C(=O)N4C2)n3C(C)C)n1 [Compound 218] | < 10 | < 10
CC(C)c1csc(-c2cccc3c2nc(O[C@@H]2C[C@H]4C(=O)N[C@]5(C(=O)NS(=O)(=O)C6(C)CC6)C[C@H]5/C=C\CCCCC[C@H](Nc5nccs5)C(=O)N4C2)n3C(C)C)n1 [Compound 1418] | < 10 | < 10
COc1ccc(-c2csc(-c3cccc4c3nc(O[C@@H]3C[C@H]5C(=O)N[C@]6(C(=O)NS(=O)(=O)C7(C)CC7)C[C@H]6/C=C\CCCCC[C@H](NC(=O)OC(C)(C)C)C(=O)N5C3)n4C(C)C)n2)cc1 [Compound 1715] | < 10 | 10 to 100
CC(C)n1c(O[C@@H]2C[C@H]3C(=O)N[C@]4(C(=O)NS(=O)(=O)C5(C)CC5)C[C@H]4/C=C\CCCCC[C@H](Nc4ccccc4)C(=O)N3C2)nc2c(C(=O)N(C)C)cccc21 [Compound 270] | < 10 | > 100
COc1ccc2c(O[C@@H]3C[C@H]4C(=O)N[C@]5(C(=O)NS(=O)(=O)C6(C)CC6)C[C@H]5/C=C\CCCCC[C@H](Nc5cccc(C(=O)N6CCN(C(=O)c7ccccc7)CC6)c5)C(=O)N4C3)cc(-c3nc(C(C)C)cs3)nc2c1C [Compound 115] | < 10 | < 10
CC(C)n1c(O[C@@H]2C[C@H]3C(=O)N[C@]4(C(=O)NS(=O)(=O)C5(C)CC5)C[C@H]4/C=C\CCCCC[C@H](Nc4ccccc4)C(=O)N3C2)nc2c(C(F)(F)F)cccc21 [Compound 204] | < 10 | 10 to 100
CC(C)n1c(O[C@@H]2C[C@H]3C(=O)N[C@]4(C(=O)NS(=O)(=O)N(C)C)C[C@H]4/C=C\CCCCC[C@H](NC(=O)OC(C)(C)C)C(=O)N3C2)nc2c(-c3nc(C4CCCCC4)cs3)cccc21 [Compound 1770] | < 10 | 10 to 100
CC(C)n1c(O[C@@H]2C[C@H]3C(=O)N[C@]4(C(=O)NS(=O)(=O)N(C)C)C[C@H]4/C=C\CCCCC[C@H](NC(=O)OC(C)(C)C)C(=O)N3C2)nc2c(-c3nc(Cc4cc(F)cc(F)c4)cs3)cccc21 [Compound 1756] | < 10 | 10 to 100
Cc1ccc(-c2csc(-c3cccc4c3nc(O[C@@H]3C[C@H]5C(=O)N[C@]6(C(=O)NS(=O)(=O)N(C)C)C[C@H]6/C=C\CCCCC[C@H](NC(=O)OC(C)(C)C)C(=O)N5C3)n4C(C)C)n2)c(C)c1 [Compound 1754] | < 10 | 10 to 100
CC(C)n1c(O[C@@H]2C[C@H]3C(=O)N[C@]4(C(=O)NS(=O)(=O)C5CC5)C[C@H]4/C=C\CCCCC[C@H](NC(=O)OC(C)(C)C)C(=O)N3C2)nc2c(-c3ncco3)cccc21 [Compound 212] | < 10 | < 10
COc1ccc2c(O[C@@H]3C[C@H]4C(=O)N[C@]5(C(=O)NS(=O)(=O)C6(C)CC6)C[C@H]5/C=C\CCCCC[C@H](Nc5cccc(C(=O)N6CCN(c7ccccc7C)CC6)c5)C(=O)N4C3)cc(-c3nc(C(C)C)cs3)nc2c1C [Compound 118] | < 10 | 10 to 100
CC(C)n1c(O[C@@H]2C[C@H]3C(=O)N[C@]4(C(=O)NS(=O)(=O)N(C)C)C[C@H]4/C=C\CCCCC[C@H](NC(=O)OC(C)(C)C)C(=O)N3C2)nc2c(-c3ccccc3F)cccc21 [Compound 261] | < 10 | 10 to 100
CC(C)n1c(O[C@@H]2C[C@H]3C(=O)N[C@]4(C(=O)NS(=O)(=O)C5(C)CC5)C[C@H]4/C=C\CCCCC[C@H](NC(=O)OC(C)(C)C)C(=O)N3C2)nc2c(NS(=O)(=O)Cc3ccccc3)cccc21 [Compound 1401] | < 10 | < 10
Cc1sc(-c2cccc3c2nc(O[C@@H]2C[C@H]4C(=O)N[C@]5(C(=O)NS(=O)(=O)C6(C)CC6)C[C@H]5/C=C\CCCCC[C@H](NC(=O)OC(C)(C)C)C(=O)N4C2)n3C(C)C)nc1C(C)C [Compound 237] | < 10 | < 10
CC(C)n1c(O[C@@H]2C[C@H]3C(=O)N[C@]4(C(=O)NS(=O)(=O)C5(C)CC5)C[C@H]4/C=C\CCCCC[C@H](Nc4ccccc4)C(=O)N3C2)nc2c(C(=O)NCc3ccccc3)cccc21 [Compound 274] | < 10 | 10 to 100
CC1(S(=O)(=O)NC(=O)[C@@]23C[C@H]2/C=C\CCCCC[C@H](Nc2ccccc2)C(=O)N2C[C@H](n4nnc(-c5ccccc5)n4)C[C@H]2C(=O)N3)CC1 [Compound 802] | < 10 | > 100
CC(C)c1csc(-c2cccc3c2nc(O[C@@H]2C[C@H]4C(=O)N[C@]5(C(=O)NS(=O)(=O)C6(C)CC6)C[C@H]5/C=C\CCCCC[C@H](NC(=O)OC5C[C@@H]6C[C@@H]6C5)C(=O)N4C2)n3C(C)C)n1 (stereo partly shown) [Compound 1411] |  | 10 to 100
CC(C)n1c(O[C@@H]2C[C@H]3C(=O)N[C@]4(C(=O)NS(=O)(=O)N(C)C)C[C@H]4/C=C\CCCCC[C@H](NC(=O)OC(C)(C)C)C(=O)N3C2)nc2c(-c3cccnc3)cccc21 [Compound 1738] |  | < 10
